Data as given in article PMC5218480 (PLoS ONE, 2017).

System: MV-4-11 cells
Test: Gene expression microarray analysis (Affymetrix PrimeView) and GSEA
Type: cell-based, human
Design: RFU PODN (11730768_x_at) / Fold change /veh PODN (11730768_x_at) / RFU LINC00158 (11744669_a_at) / Fold change /veh LINC00158 (11744669_a_at) / RFU DUSP10 (11751237_a_at) / Fold change /veh DUSP10 (11751237_a_at) / RFU ID3 (11757404_x_at) / Fold change /veh ID3 (11757404_x_at) / RFU PLEKHG5 (11737974_s_at) / Fold change /veh PLEKHG5 (11737974_s_at) / RFU LRRC4B (11730491_at) / Fold change /veh LRRC4B (11730491_at) / RFU GIMAP4 (11747438_a_at) / Fold change /veh GIMAP4 (11747438_a_at) / RFU KRT8 (11758183_x_at) / Fold change /veh KRT8 (11758183_x_at) / RFU CNN1 (11734310_a_at) / Fold change /veh CNN1 (11734310_a_at) / RFU VPS37D (11726825_at) / Fold change /veh VPS37D (11726825_at) / RFU C10orf10 (11716522_x_at) / Fold change /veh C10orf10 (11716522_x_at) / RFU KIR2DL2 /// KIR2DL4 /// KIR2DL5A /// KIR2DL5B /// KIR2DS1 /// KIR2DS2 /// KIR2DS3 /// KIR2DS4 /// KIR3DL3 /// KIR3DL3 /// KIR3DS1 (11738374_at) / Fold change /veh KIR2DL2 /// KIR2DL4 /// KIR2DL5A /// KIR2DL5B /// KIR2DS1 /// KIR2DS2 /// KIR2DS3 /// KIR2DS4 /// KIR3DL3 /// KIR3DL3 /// KIR3DS1 (11738374_at) / RFU C1QL1 (11718748_at) / Fold change /veh C1QL1 (11718748_at) / RFU TMPRSS4 (11747572_a_at) / Fold change /veh TMPRSS4 (11747572_a_at) / RFU HAMP (11756126_x_at) / Fold change /veh HAMP (11756126_x_at) / RFU RNFT2 (11725882_a_at) / Fold change /veh RNFT2 (11725882_a_at) / RFU NR4A2 (11747474_a_at) / Fold change /veh NR4A2 (11747474_a_at) / RFU ABCC12 (11746883_a_at) / Fold change /veh ABCC12 (11746883_a_at) / RFU TMEM136 (11760407_x_at) / Fold change /veh TMEM136 (11760407_x_at) / RFU CLDN22 /// WWC2 (11732394_at) / Fold change /veh CLDN22 /// WWC2 (11732394_at) / RFU HLA-DPB1 (11760878_x_at) / Fold change /veh HLA-DPB1 (11760878_x_at) / RFU SPINT1 (11716480_a_at) / Fold change /veh SPINT1 (11716480_a_at) / RFU GAP43 (11754022_s_at) / Fold change /veh GAP43 (11754022_s_at) / RFU A4GNT (11735810_at) / Fold change /veh A4GNT (11735810_at) / RFU PRB3 (11715151_x_at) / Fold change /veh PRB3 (11715151_x_at) / RFU TUBB4B (11761932_at) / Fold change /veh TUBB4B (11761932_at) / RFU CAPN14 (11732068_a_at) / Fold change /veh CAPN14 (11732068_a_at) / RFU TMCC2 (11721928_a_at) / Fold change /veh TMCC2 (11721928_a_at) / RFU IRGQ (11745062_a_at) / Fold change /veh IRGQ (11745062_a_at) / RFU FAM174B (11720279_a_at) / Fold change /veh FAM174B (11720279_a_at) / RFU TMPRSS4 (11748680_a_at) / Fold change /veh TMPRSS4 (11748680_a_at) / RFU FAM212B (11763350_a_at) / Fold change /veh FAM212B (11763350_a_at) / RFU PLEKHG5 (11743358_a_at) / Fold change /veh PLEKHG5 (11743358_a_at) / RFU ZSCAN30 (11745921_a_at) / Fold change /veh ZSCAN30 (11745921_a_at) / RFU CMKLR1 (11741424_a_at) / Fold change /veh CMKLR1 (11741424_a_at) / RFU LOC101060620 /// MAPK8IP1 (11723275_at) / Fold change /veh LOC101060620 /// MAPK8IP1 (11723275_at) / RFU SPTSSB (11747773_x_at) / Fold change /veh SPTSSB (11747773_x_at) / RFU PRSS12 (11739890_at) / Fold change /veh PRSS12 (11739890_at) / RFU BIN1 (11741810_x_at) / Fold change /veh BIN1 (11741810_x_at) / RFU WNT11 (11732464_a_at) / Fold change /veh WNT11 (11732464_a_at) / RFU C10orf10 (11716521_a_at) / Fold change /veh C10orf10 (11716521_a_at) / RFU C5orf56 (11738089_at) / Fold change /veh C5orf56 (11738089_at) / RFU CYB561 (11721691_x_at) / Fold change /veh CYB561 (11721691_x_at) / RFU ANKRD19P (11752326_a_at) / Fold change /veh ANKRD19P (11752326_a_at) / RFU OR2T12 /// OR2T33 /// OR2T8 (11738714_s_at) / Fold change /veh OR2T12 /// OR2T33 /// OR2T8 (11738714_s_at) / RFU VCAN (11748164_a_at) / Fold change /veh VCAN (11748164_a_at) / RFU JSRP1 (11732532_at) / Fold change /veh JSRP1 (11732532_at) / RFU KRTAP10-11 (11738290_x_at) / Fold change /veh KRTAP10-11 (11738290_x_at) / RFU MYO3A (11730013_a_at) / Fold change /veh MYO3A (11730013_a_at) / RFU EBF3 (11725865_a_at) / Fold change /veh EBF3 (11725865_a_at) / RFU CAMK2N1 (11719241_x_at) / Fold change /veh CAMK2N1 (11719241_x_at) / RFU C5orf56 (11738088_a_at) / Fold change /veh C5orf56 (11738088_a_at) / RFU OLFML3 (11715873_a_at) / Fold change /veh OLFML3 (11715873_a_at) / RFU LOC100653217 /// NTM (11731650_a_at) / Fold change /veh LOC100653217 /// NTM (11731650_a_at) / RFU MAPK11 (11762145_a_at) / Fold change /veh MAPK11 (11762145_a_at) / RFU FIZ1 (11724087_x_at) / Fold change /veh FIZ1 (11724087_x_at) / RFU OASL (11726364_x_at) / Fold change /veh OASL (11726364_x_at) / RFU SOX15 (11748057_x_at) / Fold change /veh SOX15 (11748057_x_at) / RFU CD79A (11719716_a_at) / Fold change /veh CD79A (11719716_a_at) / RFU HIST1H1D (11736915_at) / Fold change /veh HIST1H1D (11736915_at) / RFU CASKIN2 (11723855_a_at) / Fold change /veh CASKIN2 (11723855_a_at) / RFU LOC730098 (11760151_x_at) / Fold change /veh LOC730098 (11760151_x_at) / RFU OR4N2 (11742367_at) / Fold change /veh OR4N2 (11742367_at) / RFU PRRT2 (11749266_a_at) / Fold change /veh PRRT2 (11749266_a_at) / RFU SNX32 (11753110_a_at) / Fold change /veh SNX32 (11753110_a_at) / RFU CDHR5 (11726645_a_at) / Fold change /veh CDHR5 (11726645_a_at) / RFU RCAN1 (11760418_a_at) / Fold change /veh RCAN1 (11760418_a_at) / RFU FAM167A (11723789_a_at) / Fold change /veh FAM167A (11723789_a_at) / RFU FAM26E (11764081_at) / Fold change /veh FAM26E (11764081_at) / RFU ISYNA1 (11749810_s_at) / Fold change /veh ISYNA1 (11749810_s_at) / RFU ACY1 (11761880_at) / Fold change /veh ACY1 (11761880_at) / RFU 11764098_at / Fold change /veh 11764098_at / RFU SAMD14 (11745864_x_at) / Fold change /veh SAMD14 (11745864_x_at) / RFU NPB (11741838_a_at) / Fold change /veh NPB (11741838_a_at) / RFU TMPRSS6 (11731388_a_at) / Fold change /veh TMPRSS6 (11731388_a_at) / RFU KRTAP10-2 (11738614_at) / Fold change /veh KRTAP10-2 (11738614_at) / RFU ARHGAP8 /// PRR5-ARHGAP8 (11727945_x_at) / Fold change /veh ARHGAP8 /// PRR5-ARHGAP8 (11727945_x_at) / RFU KRTAP5-7 /// NADSYN1 (11734609_at) / Fold change /veh KRTAP5-7 /// NADSYN1 (11734609_at) / RFU RASL12 (11751679_a_at) / Fold change /veh RASL12 (11751679_a_at) / RFU CDKN2B (11736163_a_at) / Fold change /veh CDKN2B (11736163_a_at) / RFU PRF1 (11729649_at) / Fold change /veh PRF1 (11729649_at) / RFU, ZNF638 /// ZNF638-IT1 / Fold change vs veh, ZNF638 /// ZNF638-IT1 / RFU, PANK3 / Fold change vs veh, PANK3 / RFU, SH3YL1 / Fold change vs veh, SH3YL1 / RFU, ZEB2 / Fold change vs veh, ZEB2 / RFU, NRIP1 / Fold change vs veh, NRIP1 / RFU, PTTG1IP / Fold change vs veh, PTTG1IP / RFU, CAPN2 / Fold change vs veh, CAPN2 / RFU, MED14 / Fold change vs veh, MED14 / RFU, SNORA58 / Fold change vs veh, SNORA58 / RFU, C1orf63 / Fold change vs veh, C1orf63 / RFU, LRRFIP1 / Fold change vs veh, LRRFIP1 / RFU, NDUFAF7 / Fold change vs veh, NDUFAF7 / RFU, SLC12A2 / Fold change vs veh, SLC12A2 / RFU, IBTK / Fold change vs veh, IBTK / RFU, ESF1 / Fold change vs veh, ESF1 / Fold change vs veh, TMEM50B / RFU, TAOK1 / Fold change vs veh, TAOK1 / RFU, ACBD3 / Fold change vs veh, ACBD3 / RFU, TMA16 / Fold change vs veh, TMA16 / RFU, RWDD3 / Fold change vs veh, RWDD3 / RFU, BCAT1 / Fold change vs veh, BCAT1 / RFU, EDEM3 / Fold change vs veh, EDEM3 / RFU, TMEM33 / Fold change vs veh, TMEM33 / RFU, WDR75 / Fold change vs veh, WDR75 / RFU, AHCTF1 / Fold change vs veh, AHCTF1 / RFU, TFRC / Fold change vs veh, TFRC / RFU, ZDHHC17 / Fold change vs veh, ZDHHC17 / RFU, NOM1 / Fold change vs veh, NOM1 / RFU, ARL8B / Fold change vs veh, ARL8B / RFU, ZBTB11 / Fold change vs veh, ZBTB11 / RFU, TAMM41 / Fold change vs veh, TAMM41 / RFU, KIAA1704 /// LOC100996395 / Fold change vs veh, KIAA1704 /// LOC100996395 / RFU, ING1 / Fold change vs veh, ING1 / RFU, TRMT61B / Fold change vs veh, TRMT61B / RFU, FUBP3 / Fold change vs veh, FUBP3 / RFU, TP53 / Fold change vs veh, TP53 / RFU, TNKS2 / Fold change vs veh, TNKS2 / RFU, ZFP14 / Fold change vs veh, ZFP14 / RFU, ACTR2 / Fold change vs veh, ACTR2 / RFU, PPP3R1 / Fold change vs veh, PPP3R1 / RFU, PIK3R1 / Fold change vs veh, PIK3R1 / RFU, HNRNPA1 / Fold change vs veh, HNRNPA1 / RFU, RNF170 / Fold change vs veh, RNF170 / RFU, ZNF28 / Fold change vs veh, ZNF28 / RFU, RNGTT / Fold change vs veh, RNGTT / RFU, OGT / Fold change vs veh, OGT / RFU, BRD1 / Fold change vs veh, BRD1 / RFU, MARS / Fold change vs veh, MARS / RFU, ZNF655 / Fold change vs veh, ZNF655 / RFU, FAHD1 / Fold change vs veh, FAHD1 / RFU, BDP1 / Fold change vs veh, BDP1 / RFU, LRRCC1 / Fold change vs veh, LRRCC1 / RFU, ARID1A / Fold change vs veh, ARID1A / RFU, ZNF146 / Fold change vs veh, ZNF146 / RFU, ZNF330 / Fold change vs veh, ZNF330 / RFU, GPN3 / Fold change vs veh, GPN3 / RFU, C9orf123 / Fold change vs veh, C9orf123 / RFU, N4BP2L2 / Fold change vs veh, N4BP2L2 / RFU, ARFIP1 / Fold change vs veh, ARFIP1 / RFU, FAM179B / Fold change vs veh, FAM179B / RFU, BCL10 / Fold change vs veh, BCL10 / RFU, UHRF1BP1L / Fold change vs veh, UHRF1BP1L / RFU, BET1 / Fold change vs veh, BET1 / RFU, CNOT2 / Fold change vs veh, CNOT2 / RFU, ZNF268 / Fold change vs veh, ZNF268 / Fold change vs veh, ZNF507 / RFU, DGCR2 / Fold change vs veh, DGCR2 / RFU, WDSUB1 / Fold change vs veh, WDSUB1 / Fold change vs veh, HSP90B1 /// MIR3652 / RFU, ADSS / Fold change vs veh, ADSS / RFU, GK / Fold change vs veh, GK / RFU, ZNF148 / Fold change vs veh, ZNF148 / RFU, TAF9 / Fold change vs veh, TAF9 / RFU, SLC1A5 / Fold change vs veh, SLC1A5 / RFU, SLMO2 / Fold change vs veh, SLMO2 / RFU, ABCC4 / Fold change vs veh, ABCC4 / RFU, LOC101060439 /// RAP1B / Fold change vs veh, LOC101060439 /// RAP1B / RFU, RFX7 / Fold change vs veh, RFX7 / RFU, GTPBP10 / Fold change vs veh, GTPBP10 / RFU, CNEP1R1 / Fold change vs veh, CNEP1R1 / RFU, BIVM-ERCC5 /// ERCC5 / Fold change vs veh, BIVM-ERCC5 /// ERCC5 / RFU, ILF3 / Fold change vs veh, ILF3 / RFU 11762660_at / Fold change /veh 11762660_at / RFU VCAN (11757783_s_at) / Fold change /veh VCAN (11757783_s_at) / RFU DDX43 (11728927_at) / Fold change /veh DDX43 (11728927_at) / RFU KRT8 (11758188_x_at) / Fold change /veh KRT8 (11758188_x_at) / RFU NKD1 (11759106_at) / Fold change /veh NKD1 (11759106_at) / RFU SRD5A1 (11742802_a_at) / Fold change /veh SRD5A1 (11742802_a_at) / RFU TPSAB1 /// TPSB2 (11721975_s_at) / Fold change /veh TPSAB1 /// TPSB2 (11721975_s_at) / RFU GSTM3 (11746129_a_at) / Fold change /veh GSTM3 (11746129_a_at) / RFU IL23R (11737362_x_at) / Fold change /veh IL23R (11737362_x_at) / RFU TMEM51 (11727254_a_at) / Fold change /veh TMEM51 (11727254_a_at) / RFU PIWIL2 (11732686_x_at) / Fold change /veh PIWIL2 (11732686_x_at) / RFU ORM1 (11744905_x_at) / Fold change /veh ORM1 (11744905_x_at) / RFU CCDC152 (11743942_at) / Fold change /veh CCDC152 (11743942_at) / RFU ECM1 (11717891_a_at) / Fold change /veh ECM1 (11717891_a_at) / RFU IL23R (11748794_a_at) / Fold change /veh IL23R (11748794_a_at) / RFU TNFAIP8L3 (11732012_x_at) / Fold change /veh TNFAIP8L3 (11732012_x_at) / RFU MBOAT4 (11741988_at) / Fold change /veh MBOAT4 (11741988_at) / RFU 11764193_at / Fold change /veh 11764193_at / RFU TMEM53 (11763286_at) / Fold change /veh TMEM53 (11763286_at) / RFU MAGEB2 (11727129_at) / Fold change /veh MAGEB2 (11727129_at) / RFU TMEM200A (11744735_a_at) / Fold change /veh TMEM200A (11744735_a_at) / RFU CCDC152 (11751479_a_at) / Fold change /veh CCDC152 (11751479_a_at) / RFU FAM211A (11726209_a_at) / Fold change /veh FAM211A (11726209_a_at) / RFU RGS16 (11746705_a_at) / Fold change /veh RGS16 (11746705_a_at) / RFU VCAN (11755009_s_at) / Fold change /veh VCAN (11755009_s_at) / RFU RHOB (11743442_s_at) / Fold change /veh RHOB (11743442_s_at) / RFU RGS16 (11720943_a_at) / Fold change /veh RGS16 (11720943_a_at) / RFU RGS16 (11720944_at) / Fold change /veh RGS16 (11720944_at) / RFU, VPS4B / Fold change vs veh, VPS4B / RFU, CREB1 / Fold change vs veh, CREB1 / RFU, DNAJC13 / Fold change vs veh, DNAJC13 / RFU, GNAQ / Fold change vs veh, GNAQ / RFU, CDK5R1 / Fold change vs veh, CDK5R1 / RFU, ZRANB3 / Fold change vs veh, ZRANB3 / RFU, CUL4A / Fold change vs veh, CUL4A / RFU, CCNY / Fold change vs veh, CCNY / RFU, UFL1 / Fold change vs veh, UFL1 / RFU, COG3 / Fold change vs veh, COG3 / RFU, DIAPH2 / Fold change vs veh, DIAPH2 / RFU, SKA2 / Fold change vs veh, SKA2 / RFU, AFF3 / Fold change vs veh, AFF3 / RFU, LMF1 / Fold change vs veh, LMF1 / RFU, IPO11 / Fold change vs veh, IPO11 / RFU, DFFB / Fold change vs veh, DFFB / RFU, FOXP1 / Fold change vs veh, FOXP1 / RFU, CARD8 / Fold change vs veh, CARD8 / RFU, STRN3 / Fold change vs veh, STRN3 / RFU, ADK / Fold change vs veh, ADK / RFU, RASSF2 / Fold change vs veh, RASSF2 / RFU, WIPF1 / Fold change vs veh, WIPF1 / RFU, LARP1B / Fold change vs veh, LARP1B / RFU, RASA1 / Fold change vs veh, RASA1 / RFU, RB1 / Fold change vs veh, RB1 / RFU, PPFIA1 / Fold change vs veh, PPFIA1 / RFU, MAT2A / Fold change vs veh, MAT2A / RFU, CCT5 / Fold change vs veh, CCT5 / RFU, WDR92 / Fold change vs veh, WDR92 / RFU, CUX1 / Fold change vs veh, CUX1 / RFU, TTC7A / Fold change vs veh, TTC7A / RFU, TMEM135 / Fold change vs veh, TMEM135 / RFU, DEPTOR / Fold change vs veh, DEPTOR / RFU, CPM / Fold change vs veh, CPM / RFU, DNAJB6 / Fold change vs veh, DNAJB6 / RFU, CACNA2D3 / Fold change vs veh, CACNA2D3 / RFU, DTX4 / Fold change vs veh, DTX4 / RFU, TFCP2 / Fold change vs veh, TFCP2 / RFU, GMCL1 /// GMCL1P1 / Fold change vs veh, GMCL1 /// GMCL1P1 / RFU, AEBP2 / Fold change vs veh, AEBP2 / RFU, SNHG1 /// SNORD22 /// SNORD25 /// SNORD26 /// SNORD27 /// SNORD28 /// SNORD29 /// SNORD31 / Fold change vs veh, SNHG1 /// SNORD22 /// SNORD25 /// SNORD26 /// SNORD27 /// SNORD28 /// SNORD29 /// SNORD31 / Fold change (Aza/veh), C12orf56 (ProbeSet 11735607_a_at) / Fold change (ACY-1035/veh), C12orf56 (ProbeSet 11735607_a_at) / Fold change (Aza/veh), FGFR1OP (ProbeSet 11751329_s_at) / Fold change (ACY-1035/veh), FGFR1OP (ProbeSet 11751329_s_at) / Fold change (Aza/veh), VPS36 (ProbeSet 11739960_a_at) / Fold change (ACY-1035/veh), VPS36 (ProbeSet 11739960_a_at) / RFU SYPL1 (11715823_x_at) / Fold change /veh SYPL1 (11715823_x_at) / RFU IGFBP7 (11715501_s_at) / Fold change /veh IGFBP7 (11715501_s_at) / RFU REEP3 (11722064_at) / Fold change /veh REEP3 (11722064_at) / RFU IGLL1 (11728026_x_at) / Fold change /veh IGLL1 (11728026_x_at): dose or concentration left out as unconfirmed
Details: ProbeSet 11741311_a_at; LIST B

Nc1ncn([C@@H]2O[C@H](CO)[C@@H](O)[C@H]2O)c(=O)n1 [azacitidine]
RFU, ZNF655: 32.83 RFU
